Columns and labels:
MOLM-13 cells = test: MOLM-13 Cellular Assay; assay type: cell-based; conditions: Homo sapiens, 72 hours exposure, cell viability by CellTiter-Glo
Procedure: The day prior to assay set-up, cells were pelleted, resuspended in fresh media, counted, and cells were plated at 0.4×10^6 cell/mL in a T150 flask. […] Cells were exposed to different concentrations of test compounds at 37° C., 5% CO2 for 72 hours immediately after seeding.

human DHODH = target: T1, human DHODH (Homo sapiens, UniProt Q02127); test: DHODH Enzymatic Assay; assay type: biochemical; conditions: purified human DHODH; DCIP absorbance, end-point mode
T1 construct: purchased Proteros PR-0044
Procedure, shortened: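 Purified human DHODH activity read as absorbance of DCIP, the terminal electron acceptor, in […] pH 7.5, 150 mM NaCl, 0.5 mM EDTA, 0.1% Triton X-100. Reaction started with a substrate mix of 20 mM DHO, 5 mM CoQ6 and 1 mM DCIP in assay buffer.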

T1 sequence (Q02127 whole entry): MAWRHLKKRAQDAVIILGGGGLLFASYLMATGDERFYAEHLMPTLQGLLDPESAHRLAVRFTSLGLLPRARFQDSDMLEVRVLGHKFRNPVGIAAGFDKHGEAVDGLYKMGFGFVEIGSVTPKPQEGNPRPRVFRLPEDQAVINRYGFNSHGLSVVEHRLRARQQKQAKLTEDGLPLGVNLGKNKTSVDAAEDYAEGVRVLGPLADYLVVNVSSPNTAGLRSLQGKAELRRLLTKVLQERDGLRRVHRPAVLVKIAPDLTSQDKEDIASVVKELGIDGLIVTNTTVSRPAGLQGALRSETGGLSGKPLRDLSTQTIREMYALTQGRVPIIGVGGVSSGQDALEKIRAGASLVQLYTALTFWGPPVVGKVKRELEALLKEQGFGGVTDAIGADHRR

SMILES | EC50 (MOLM-13 cells) | EC50 (human DHODH)
Cc1ccnc(Cl)c1NC(=O)c1cc(F)c(-n2nc(CO)n(C(C)C)c2=O)nc1O[C@@H](C)C(F)(F)F [Example 89, N-(2-Chloro-4-methyl-3-pyridyl)-5-fluoro-6-[3-(hydroxymethyl)-4-isopropyl-5-oxo-1,2,4-triazol-1-yl]-2-[(1S)-2,2,2-trifluoro-1-methyl-ethoxy]pyridine-3-carboxamide] | 4.09 nM | 10.7 nM
Cc1ccnc(Cl)c1NC(=O)c1cc(F)c(-n2nc(CO)n(CC(F)F)c2=O)nc1O[C@@H](C)C(F)(F)F [Example 90, N-(2-Chloro-4-methyl-3-pyridyl)-6-[4-(2,2-difluoroethyl)-3-(hydroxymethyl)-5-oxo-1,2,4-triazol-1-yl]-5-fluoro-2-[(1S)-2,2,2-trifluoro-1-methyl-ethoxy]pyridine-3-carboxamide] | 14.9 nM | 23.1 nM
CCCn1c(CO)nn(-c2nc(O[C@@H](C)C(F)(F)F)c(C(=O)Nc3c(C)n[nH]c3Cl)cc2F)c1=O [Example 91, N-(5-Chloro-3-methyl-1H-pyrazol-4-yl)-5-fluoro-6-[3-(hydroxymethyl)-5-oxo-4-propyl-1,2,4-triazol-1-yl]-2-[(1S)-2,2,2-trifluoro-1-methyl-ethoxy]pyridine-3-carboxamide] | 2.04 nM | 3.86 nM
CCCn1c(CF)nn(-c2nc(O[C@@H](C)C(F)(F)F)c(C(=O)Nc3c(C)ccnc3Cl)cc2F)c1=O [Example 92, N-(2-Chloro-4-methyl-3-pyridyl)-5-fluoro-6-[3-(fluoromethyl)-5-oxo-4-propyl-1,2,4-triazol-1-yl]-2-[(1S)-2,2,2-trifluoro-1-methyl-ethoxy]pyridine-3-carboxamide] | 0.435 nM | 0.639 nM
CCn1c(CO)nn(-c2nc(O[C@@H](C)C(F)(F)F)c(C(=O)Nc3c(OC)ccnc3OC)cc2F)c1=O [Example 93, N-(2,4-Dimethoxy-3-pyridyl)-6-[4-ethyl-3-(hydroxymethyl)-5-oxo-1,2,4-triazol-1-yl]-5-fluoro-2-[(1S)-2,2,2-trifluoro-1-methyl-ethoxy]pyridine-3-carboxamide] | 4.14 nM | 13.8 nM
CCn1c(CO)nn(-c2nc(O[C@@H](C)C(F)(F)F)c(C(=O)Nc3c(OC)ncnc3OC)cc2F)c1=O [Example 94, N-(4,6-Dimethoxypyrimidin-5-yl)-6-[4-ethyl-3-(hydroxymethyl)-5-oxo-1,2,4-triazol-1-yl]-5-fluoro-2-[(1S)-2,2,2-trifluoro-1-methyl-ethoxy]pyridine-3-carboxamide] | 48 nM | > 33 nM
CCn1c(CO)nn(-c2nc(O[C@@H](C)C(F)(F)F)c(C(=O)Nc3c[nH]nc3C(F)(F)F)cc2F)c1=O [Example 95, 6-[4-Ethyl-3-(hydroxymethyl)-5-oxo-1,2,4-triazol-1-yl]-5-fluoro-2-[(1S)-2,2,2-trifluoro-1-methyl-ethoxy]-N-[3-(trifluoromethyl)-1H-pyrazol-4-yl]pyridine-3-carboxamide] | 1.23 nM | 2.09 nM
CCn1c(CF)nn(-c2nc(O[C@@H](C)C(F)(F)F)c(C(=O)Nc3c(C)n[nH]c3Cl)cc2F)c1=O [Example 96, N-(5-Chloro-3-methyl-1H-pyrazol-4-yl)-6-[4-ethyl-3-(fluoromethyl)-5-oxo-1,2,4-triazol-1-yl]-5-fluoro-2-[(1S)-2,2,2-trifluoro-1-methyl-ethoxy]pyridine-3-carboxamide] | 0.32 nM | 0.382 nM
CCn1c(CF)nn(-c2nc(OC(C)C)c(C(=O)Nc3c(C)ccnc3Cl)cc2F)c1=O [Example 97, N-(2-Chloro-4-methyl-3-pyridyl)-6-[4-ethyl-3-(fluoromethyl)-5-oxo-1,2,4-triazol-1-yl]-5-fluoro-2-isopropoxy-pyridine-3-carboxamide] | 1.06 nM | 1.15 nM
CCn1c(CO)nn(-c2nc(O[C@@H](C)C(F)(F)F)c(C(=O)Nc3cc(OC)ncc3Cl)cc2F)c1=O [Example 98, N-(5-Chloro-2-methoxy-4-pyridyl)-6-[4-ethyl-3-(hydroxymethyl)-5-oxo-1,2,4-triazol-1-yl]-5-fluoro-2-[(1S)-2,2,2-trifluoro-1-methyl-ethoxy]pyridine-3-carboxamide] | 41.6 nM | 91.4 nM
CCCn1c(CF)nn(-c2nc(O[C@@H](C)C(F)(F)F)c(C(=O)Nc3c(C)n[nH]c3Cl)cc2F)c1=O [Example 99, N-(5-Chloro-3-methyl-1H-pyrazol-4-yl)-5-fluoro-6-[3-(fluoromethyl)-5-oxo-4-propyl-1,2,4-triazol-1-yl]-2-[(1S)-2,2,2-trifluoro-1-methyl-ethoxy]pyridine-3-carboxamide] | 0.38 nM | 0.975 nM
CCn1c(CO)nn(-c2nc(O[C@@H](C)C(F)(F)F)c(C(=O)Nc3c[nH]nc3C#N)cc2F)c1=O [Example 100, N-(3-Cyano-1H-pyrazol-4-yl)-6-[4-ethyl-3-(hydroxymethyl)-5-oxo-1,2,4-triazol-1-yl]-5-fluoro-2-[(1S)-2,2,2-trifluoro-1-methyl-ethoxy]pyridine-3-carboxamide] | 19 nM | > 100 nM
Cc1ccnc(Cl)c1NC(=O)c1cc(F)c(-n2nc(CF)n(CCCO)c2=O)nc1O[C@@H](C)C(F)(F)F [Example 101, N-(2-Chloro-4-methyl-3-pyridyl)-5-fluoro-6-[3-(fluoromethyl)-4-(3-hydroxypropyl)-5-oxo-1,2,4-triazol-1-yl]-2-[(1S)-2,2,2-trifluoro-1-methyl-ethoxy]pyridine-3-carboxamide] | 19.4 nM | 39.4 nM
CCn1c(CO)nn(-c2nc(O[C@@H](C)C(F)(F)F)c(C(=O)Nc3c(Cl)ncc(C)c3C)cc2F)c1=O [Example 102, N-(2-Chloro-4,5-dimethyl-3-pyridyl)-6-[4-ethyl-3-(hydroxymethyl)-5-oxo-1,2,4-triazol-1-yl]-5-fluoro-2-[(1S)-2,2,2-trifluoro-1-methyl-ethoxy]pyridine-3-carboxamide] | 1.39 nM | 20.1 nM
CCn1c(CO)nn(-c2nc(O[C@@H](C)C(F)(F)F)c(C(=O)Nc3c(OC)cc(C)nc3C)cc2F)c1=O [Example 103, 6-[4-ethyl-3-(hydroxymethyl)-5-oxo-1,2,4-triazol-1-yl]-5-fluoro-N-(4-methoxy-2,6-dimethyl-3-pyridyl)-2-[(1S)-2,2,2-trifluoro-1-methyl-ethoxy]pyridine-3-carboxamide] | 17.3 nM | > 100 nM
CCn1c(CO)nn(-c2nc(O[C@@H](C)C(F)(F)F)c(C(=O)Nc3nccc(OC)c3Cl)cc2F)c1=O [Example 104, N-(3-Chloro-4-methoxy-2-pyridyl)-6-[4-ethyl-3-(hydroxymethyl)-5-oxo-1,2,4-triazol-1-yl]-5-fluoro-2-[(1S)-2,2,2-trifluoro-1-methyl-ethoxy]pyridine-3-carboxamide] | 7.59 nM | 6.62 nM
CCOc1ccnc(NC(=O)c2cc(F)c(-n3nc(CO)n(CC)c3=O)nc2O[C@@H](C)C(F)(F)F)c1Cl [Example 105, N-(3-Chloro-4-ethoxy-2-pyridyl)-6-[4-ethyl-3-(hydroxymethyl)-5-oxo-1,2,4-triazol-1-yl]-5-fluoro-2-[(1S)-2,2,2-trifluoro-1-methyl-ethoxy]pyridine-3-carboxamide] | 4.6 nM | 3.4 nM
